Measured values: ChEMBL document CHEMBL4152189, “Incorporation of nitric oxide donor into 1,3-dioxyxanthones leads to synergistic anticancer activity” (Eur J Med Chem, 2018)

Tests used:
[1] = test system: HepG2; experiment: Growth inhibition of human HepG2 cells after 24 hrs by MTT assay; format: functional, cell-based; details: HepG2, 24 h
[2] = test system: MDA-MB-231; experiment: Growth inhibition of human MDA-MB-231 cells after 24 hrs by MTT assay; format: functional, cell-based; details: MDA-MB-231, 24 h
[3] = test system: MCF7; experiment: Growth inhibition of human MCF7 cells after 24 hrs by MTT assay; format: functional, cell-based; details: MCF7, 24 h
[4] = test system: HepG2; experiment: Induction of NO generation in human HepG2 cells assessed as nitrite levels at 0.66 uM after 1 hr by Griess assay (reference value: 12.9 +/- 1.5 uM); format: functional
[5] = test system: HepG2; experiment: Induction of NO generation in human HepG2 cells assessed as nitrite levels at 0.66 uM after 3 hrs by Griess assay (reference value: 12.8 +/- 1.5 uM); format: functional
[6] = test system: HepG2; experiment: Induction of NO generation in human HepG2 cells assessed as nitrite levels at 0.66 uM after 6 hrs by Griess assay (reference value: 12.6 +/- 1.1 uM); format: functional
[7] = test system: HepG2; experiment: Induction of NO generation in human HepG2 cells assessed as nitrite levels at 0.66 uM after 12 hrs by Griess assay (reference value: 12.7 +/- 1.8 uM); format: functional
[8] = test system: HepG2; experiment: Induction of NO generation in human HepG2 cells assessed as nitrite levels at 0.66 uM after 24 hrs by Griess assay (reference value: 12.8 +/- 1.7 uM); format: functional
[9] = test system: HepG2; experiment: Induction of NO generation in human HepG2 cells assessed as nitrite levels at 0.66 uM after 48 hrs by Griess assay (reference value: 12.8 +/- 1.7 uM); format: functional
[10] = test system: HepG2; experiment: Induction of NO generation in human HepG2 cells assessed as nitrite levels at 0.66 uM after 60 hrs by Griess assay (reference value: 12.8 +/- 1.5 uM); format: functional
[11] = test system: L02; experiment: Induction of NO generation in human HL-7702 cells assessed as nitrite levels at 0.66 uM after 1 hr by Griess assay (reference value: 11.6 +/- 1.1 uM); format: functional
[12] = test system: L02; experiment: Induction of NO generation in human HL-7702 cells assessed as nitrite levels at 0.66 uM after 3 hrs by Griess assay (reference value: 11.6 +/- 1.2 uM); format: functional
[13] = test system: L02; experiment: Induction of NO generation in human HL-7702 cells assessed as nitrite levels at 0.66 uM after 6 hrs by Griess assay (reference value: 11.8 +/- 1.1 uM); format: functional
[14] = test system: L02; experiment: Induction of NO generation in human HL-7702 cells assessed as nitrite levels at 0.66 uM after 12 hrs by Griess assay (reference value: 11.8 +/- 1.2 uM); format: functional
[15] = test system: L02; experiment: Induction of NO generation in human HL-7702 cells assessed as nitrite levels at 0.66 uM after 24 hrs by Griess assay (reference value: 11.6 +/- 1.1 uM); format: functional
[16] = test system: L02; experiment: Induction of NO generation in human HL-7702 cells assessed as nitrite levels at 0.66 uM after 48 hrs by Griess assay (reference value: 11.6 +/- 1.1 uM); format: functional
[17] = test system: L02; experiment: Induction of NO generation in human HL-7702 cells assessed as nitrite levels at 0.66 uM after 60 hrs by Griess assay (reference value: 11.8 +/- 1.3 uM); format: functional

Work on `O=[N+]([O-])OCCCCCO` yielded an IC50 [1] of 72.8 µM, an IC50 [2] of 140 µM and an IC50 [3] of 102 µM. For the same molecule, the Activity [4] was 16.2 µM, the Activity [5] was 18.4 µM and the Activity [6] was 23.3 µM. For the same molecule, the Activity [7] was 26 µM, the Activity [8] was 29.2 µM and the Activity [9] was 24.6 µM. The Activity [10] was 17.1 µM, the Activity [11] was 13.5 µM and the Activity [12] was 13.8 µM. It also gave an Activity [13] of 16 µM, an Activity [14] of 17.5 µM and an Activity [15] of 14.1 µM. It also gave an Activity [16] of 13.4 µM and an Activity [17] of 13.3 µM.
